In ChEMBL document CHEMBL5518206, “Hit-to-Lead Identification and Validation of a Triaromatic Pleuromutilin Antibiotic Candidate” (J Med Chem, 2024):
pIC50: −log10 of the molar value. Converted amounts (≈) assume the structure as drawn. The source made the active and inactive calls. The calls are words filed in the database; no cut-off is given here.

Columns and labels:
Cytochrome P450 3A4 = Cytochrome P450 3A4 (Homo sapiens, UniProt P08684); assay: Inhibition of human CYP3A4 incubated for 60 mins by red fluorescent-probe-based microsomal assay; assay type: ADME
Chain of Cytochrome P450 3A4 (P08684 whole entry): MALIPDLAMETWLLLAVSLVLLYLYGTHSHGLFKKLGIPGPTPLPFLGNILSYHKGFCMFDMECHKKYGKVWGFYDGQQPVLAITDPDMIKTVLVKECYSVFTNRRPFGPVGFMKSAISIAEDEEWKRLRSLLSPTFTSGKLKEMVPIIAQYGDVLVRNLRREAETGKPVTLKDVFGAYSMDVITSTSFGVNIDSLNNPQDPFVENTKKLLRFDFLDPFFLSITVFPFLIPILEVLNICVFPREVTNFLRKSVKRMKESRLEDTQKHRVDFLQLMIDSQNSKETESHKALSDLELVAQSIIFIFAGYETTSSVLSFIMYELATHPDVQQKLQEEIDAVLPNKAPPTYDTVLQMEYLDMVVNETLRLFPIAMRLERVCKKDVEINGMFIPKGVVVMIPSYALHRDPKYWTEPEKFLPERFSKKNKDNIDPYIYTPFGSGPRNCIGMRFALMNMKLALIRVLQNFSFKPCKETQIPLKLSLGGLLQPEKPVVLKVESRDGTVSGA

Enterococcus faecium [1] = assay: Antibacterial activity against Linezolid/Ampicillin/ciprofloxacin/Vancomycin-resistant Enterococcus faecium assessed as inhibition of visible growth incubated for 20 to 24 hrs by microbroth serial dilution assay; assay type: functional; details: time 20-24 hrs, read-out: MIC100
Enterococcus faecalis = assay: Antibacterial activity against Enterococcus faecalis assessed as inhibition of visible growth incubated for 20 to 24 hrs by microbroth serial dilution assay; assay type: functional; details: time 20-24 hrs, read-out: MIC100
Staphylococcus aureus [2] = assay: Antibacterial activity against multi drug-resistant Staphylococcus aureus USA300 FPR3757 assessed as inhibition of visible growth incubated for 20 to 24 hrs by microbroth serial dilution assay; assay type: functional; details: time 20-24 hrs, read-out: MIC100
Streptococcus pneumoniae = assay: Antibacterial activity against Streptococcus pneumoniae assessed as inhibition of visible growth incubated for 20 to 24 hrs by microbroth serial dilution assay; assay type: functional; details: time 20-24 hrs, read-out: MIC100
in vitro [3] = details: mouse, liver microsomes
MDCK-MDR1 = assay: Cytotoxicity against MDCKII-MDR1 cells assessed as cell viability at 100 uM measured by MTT assay; assay type: toxicity, cell-based, Canis lupus familiaris; details: dog, mdck-mdr1, 100 µM
[4] = Efflux ratio of apparent permeability from basolateral to apical side over apical to basolateral side in human Caco-2 cells at 280 uM and measured after 120 mins by LC-MS analysis; assay type: ADME, cell-based
in vitro [5] = details: human, liver microsomes
[6] = Apparent permeability from apical to basolateral side in human Caco-2 cells at 280 uM measured upto 120 mins by LC-MS analysis; assay type: ADME, cell-based
Enterococcus faecium [7] = assay: Antibacterial activity against Vancomycin-resistant Enterococcus faecium assessed as inhibition of visible growth incubated for 20 to 24 hrs by microbroth serial dilution assay; assay type: functional; details: time 20-24 hrs, read-out: MIC100
in vitro [8] = details: pig, liver microsomes
Escherichia coli = assay: Antibacterial activity against Escherichia coli assessed as inhibition of visible growth incubated for 20 to 24 hrs by microbroth serial dilution assay; assay type: functional, organism-based; details: time 20-24 hrs
Staphylococcus aureus [9] = assay: (§1) Induction of resistant development in -(6-(6-(Piperazin-1-y1)-9H-purin-9-y)methyl)pyridin-3-y1)-1H-1,2,3-triazol-1-yl)-22-deoxypleuromutilin-16 passages resistance developed Staphylococcus aureus USA300 FPR3757 assessed as fold increase in MIC at sub-MIC concentration measured after 18 passages with conjugate by serial passage assay; assay type: functional
[10] = Apparent permeability from basolateral to apical side in human Caco-2 cells at 280 uM measured upto 120 mins by LC-MS analysis; assay type: ADME, cell-based
[11] = Inhibition of P-gp efflux in MDCKII-MDR1 cells using calcein-AM as substrate assessed as intracellular calcein fluorescence preincubated for 15 mins followed by substrate addition and measured by fluorescence based assay; assay type: cell-based; details: Canis lupus familiaris
Staphylococcus aureus [12] = assay: Antibacterial activity against multi drug-resistant Staphylococcus aureus USA300 FPR3757 assessed as reduction in bacterial growth of original inoculum at 4 times of MIC concentration measured after 24 hrs by time-kill assay; assay type: functional
[13] = Apparent permeability from apical to basolateral side in human Caco-2 cells at 100 uM measured upto 120 mins by LC-MS analysis; assay type: ADME, cell-based
Staphylococcus aureus [14] = assay: Antibacterial activity against multi drug-resistant Staphylococcus aureus USA300 FPR3757 assessed as reduction in bacterial growth of original inoculum at 4 times of MIC concentration measured after 24 hrs by time-kill assay relative to control; assay type: functional
in vitro [15] = details: pig, liver microsomes; remark: listed apart in the source
hERG (KCNH2) = hERG (KCNH2) (Homo sapiens, UniProt Q12809); assay: Inhibition of hERG expressed in HEK293 cells assessed as tail current at 60 uM measured after 8 mins by automated whole-cell Qpatch Clamp assay relative to control; details: HEK293 cells that express hERG
Chain of hERG (KCNH2) (Q12809 whole entry): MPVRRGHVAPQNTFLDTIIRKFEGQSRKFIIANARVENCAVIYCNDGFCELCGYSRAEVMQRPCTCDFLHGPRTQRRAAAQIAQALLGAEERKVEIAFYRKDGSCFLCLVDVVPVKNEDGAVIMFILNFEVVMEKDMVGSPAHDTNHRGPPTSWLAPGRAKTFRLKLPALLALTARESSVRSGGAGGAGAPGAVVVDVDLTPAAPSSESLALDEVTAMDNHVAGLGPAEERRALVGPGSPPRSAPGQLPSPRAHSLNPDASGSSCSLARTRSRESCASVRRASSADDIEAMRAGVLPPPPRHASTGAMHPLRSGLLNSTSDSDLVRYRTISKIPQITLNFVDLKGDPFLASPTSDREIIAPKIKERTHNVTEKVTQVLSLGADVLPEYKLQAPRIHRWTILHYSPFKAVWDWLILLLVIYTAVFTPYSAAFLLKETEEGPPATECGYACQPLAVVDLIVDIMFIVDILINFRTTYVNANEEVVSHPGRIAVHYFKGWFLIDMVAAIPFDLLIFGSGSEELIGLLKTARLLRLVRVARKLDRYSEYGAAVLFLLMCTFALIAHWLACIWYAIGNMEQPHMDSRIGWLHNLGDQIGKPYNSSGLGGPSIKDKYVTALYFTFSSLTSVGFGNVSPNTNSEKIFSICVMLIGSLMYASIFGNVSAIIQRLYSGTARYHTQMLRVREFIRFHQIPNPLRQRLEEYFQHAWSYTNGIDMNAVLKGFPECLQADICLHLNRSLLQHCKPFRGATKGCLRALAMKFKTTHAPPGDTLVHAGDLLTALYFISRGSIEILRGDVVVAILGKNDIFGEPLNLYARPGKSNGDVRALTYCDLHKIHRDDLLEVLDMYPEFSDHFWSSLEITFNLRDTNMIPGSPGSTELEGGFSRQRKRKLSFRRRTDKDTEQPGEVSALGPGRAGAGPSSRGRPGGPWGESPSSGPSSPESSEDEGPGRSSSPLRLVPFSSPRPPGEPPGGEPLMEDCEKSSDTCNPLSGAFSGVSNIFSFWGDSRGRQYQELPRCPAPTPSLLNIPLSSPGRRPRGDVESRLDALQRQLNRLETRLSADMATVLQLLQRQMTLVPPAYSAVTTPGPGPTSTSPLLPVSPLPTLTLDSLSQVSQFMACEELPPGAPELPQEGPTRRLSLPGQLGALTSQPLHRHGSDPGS

[16] = Efflux ratio of apparent permeability from basolateral to apical side over apical to basolateral side in human Caco-2 cells at 100 uM and measured after 120 mins by LC-MS analysis; assay type: ADME, cell-based
in vitro [17] = details: mouse, liver microsomes; remark: listed apart in the source
in vitro [18] = details: human, liver microsomes; remark: listed apart in the source
[19] = Solubility of the compound in Dulbecco's PBS at 20 degree C measured after 24 hrs
Staphylococcus aureus [20] = assay: as §1, with “22” for “18”; assay type: functional
Staphylococcus aureus [21] = assay: as §1, with “28” for “18”; assay type: functional
[22] = Plasma protein binding in human at 5 to 15 uM incubated for 5 hrs by LC-MS analysis; assay type: ADME, cell-free; details: dose 5-15 µM, read-out: PPB (converted)
[23] = molecular target: Voltage-gated inwardly rectifying potassium channel KCNH2 (Homo sapiens, UniProt Q12809); assay: Inhibition of hERG expressed in HEK293 cells assessed as tail current measured after 8 mins by automated whole-cell Qpatch Clamp assay
Chain of Voltage-gated inwardly rectifying potassium channel KCNH2 (Q12809 whole entry): as above

Staphylococcus aureus [24] = assay: as §1, with “13” for “18”; assay type: functional
Staphylococcus aureus [25] = assay: Induction of resistant development in lefamulin 5 passages resistance developed Staphylococcus aureus USA300 FPR3757 assessed as fold increase in MIC at sub-MIC concentration measured after 13 passages with conjugate by serial passage assay; assay type: functional
Staphylococcus aureus [26] = assay: Antibacterial activity against multi drug-resistant Staphylococcus aureus USA300 FPR3757 assessed as reduction in bacterial growth at 1 times of MIC concentration measured at first 12 hrs by time-kill assay; assay type: functional
Staphylococcus aureus [27] = assay: Induction of resistant development in linezolid 5 passages resistance developed Staphylococcus aureus USA300 FPR3757 assessed as fold increase in MIC at sub-MIC concentration measured after 25 passages with conjugate by serial passage assay; assay type: functional
Staphylococcus aureus [28] = assay: Antibacterial activity against multi drug-resistant Staphylococcus aureus USA300 FPR3757 assessed as reduction in bacterial growth at 4 times of MIC concentration measured after 6 hrs by time-kill assay; assay type: functional
[29] = Apparent permeability from basolateral to apical side in human Caco-2 cells at 100 uM measured upto 120 mins by LC-MS analysis; assay type: ADME, cell-based
[30] = Cmax in pig urine at 3 mg/kg, iv measured upto 240 mins by LC-MS/MS analysis; assay type: ADME, organism-based, Sus scrofa
[31] = Plasma concentration in pig at 10 mg/kg, po measured upto 240 mins by LC-MS/MS analysis; assay type: ADME, organism-based, Sus scrofa
[32] = AUC (0 to infinity) in NMRI female mouse at 30 mg/kg, po by HPLC analysis; assay type: ADME, organism-based; details: in vivo
[33] = Tmax in NMRI female mouse at 30 mg/kg, po by HPLC analysis; assay type: ADME, organism-based; details: in vivo

SMILES: C=C[C@]1(C)C[C@@H](OC(=O)CS[C@@H]2CC[C@@H](N)C[C@H]2O)[C@]2(C)[C@H](C)CC[C@]3(CCC(=O)[C@H]32)[C@@H](C)[C@@H]1O [LEFAMULIN]
- pIC50 (Cytochrome P450 3A4): 6.12
- MIC (Enterococcus faecium [1]): 0.12 µg/mL (≈ 0.236 µM)
- MIC (Enterococcus faecalis): 0.06 µg/mL (≈ 0.118 µM)
- MIC (Staphylococcus aureus [2]): 0.12 µg/mL (≈ 0.236 µM)
- MIC (Streptococcus pneumoniae): 0.25 µg/mL (≈ 0.492 µM)
- half-life at 0.5 h, 1 µM (in vitro [3]): 11.5 min
- Activity (MDCK-MDR1): Non-Toxic
- efflux ratio at 2 h, 280 µM [4]: 3.9
- half-life at 0.5 h, 1 µM (in vitro [5]): 4.3 min
- Papp A→B at 2 h, 280 µM [6]: 3.19 ×10⁻⁶ cm/s
- MIC (Enterococcus faecium [7]): 0.12 µg/mL (≈ 0.236 µM)
- CLint scaled at 0.5 h, 1 µM (in vitro [8]): 359 mL/min/kg
- Activity (Escherichia coli): inactive
- fold change (FC) (Staphylococcus aureus [9]): 32
- Papp B→A at 2 h, 280 µM [10]: 12.5 ×10⁻⁶ cm/s
- pIC50 [11]: 4.37
- Activity (Staphylococcus aureus [12]): 3 log10CFU/ml
- Papp A→B at 2 h, 100 µM [13]: 0.63 ×10⁻⁶ cm/s
- inhibition (INH) (Staphylococcus aureus [14]): 99.9%
- half-life at 0.5 h, 1 µM (in vitro [15]): 15.3 min
- inhibition at 8 min, 60 µM (hERG (KCNH2)): 32.8%
- efflux ratio at 2 h, 100 µM [16]: 40.8
- CLint scaled at 0.5 h, 1 µM (in vitro [17]): 478 mL/min/kg
- CLint scaled at 0.5 h, 1 µM (in vitro [18]): 1460 mL/min/kg
- solubility at 24 h [19]: 1920 µM (≈ 973 µg/mL)
- fold change (FC) (Staphylococcus aureus [20]): 32
- fold change (FC) (Staphylococcus aureus [21]): 128
- fraction unbound at 5 h, up to 15 µM [22]: 0.34
- pIC50 [23]: 3.90
- fold change (FC) (Staphylococcus aureus [24]): 16
- fold change (FC) (Staphylococcus aureus [25]): 32
- Activity (Staphylococcus aureus [26]): 2 log10CFU/ml
- fold change (FC) (Staphylococcus aureus [27]): 32
- Activity (Staphylococcus aureus [28]): 2.5 log10CFU/ml
- Papp B→A at 2 h, 100 µM [29]: 25.7 ×10⁻⁶ cm/s

SMILES: C=C[C@]1(C)C[C@@H](OC(=O)Cn2cc(-c3ccc(Cn4cnc5c(N6CCNCC6)ncnc54)nc3)nn2)[C@]2(C)[C@H](C)CC[C@]3(CCC(=O)[C@H]32)[C@@H](C)[C@@H]1O
- pIC50 (Cytochrome P450 3A4): 6.39
- MIC (Enterococcus faecium [1]): 0.12 µg/mL (≈ 0.166 µM)
- MIC (Enterococcus faecalis): 0.12 µg/mL (≈ 0.166 µM)
- MIC (Staphylococcus aureus [2]): 0.12 µg/mL (≈ 0.166 µM)
- MIC (Streptococcus pneumoniae): 0.03 µg/mL (≈ 0.0415 µM)
- half-life at 0.5 h, 1 µM (in vitro [3]): 5.9 min
- Activity (MDCK-MDR1): Non-Toxic
- Cmax [30]: 18700 ng/mL
- efflux ratio at 2 h, 280 µM [4]: 2.5
- concentration at 4 h [31]: 49.7 ng/mL
- AUC [32]: 1.6 µg/mL/min
- half-life at 0.5 h, 1 µM (in vitro [5]): 3.7 min
- Papp A→B at 2 h, 280 µM [6]: 2.12 ×10⁻⁶ cm/s
- MIC (Enterococcus faecium [7]): 0.03 µg/mL (≈ 0.0415 µM)
- CLint scaled at 0.5 h, 1 µM (in vitro [8]): 4200 mL/min/kg
- Papp B→A at 2 h, 280 µM [10]: 5.34 ×10⁻⁶ cm/s
- pIC50 [11]: 4.33
- Activity (Staphylococcus aureus [12]): 3 log10CFU/ml
- Papp A→B at 2 h, 100 µM [13]: 0.48 ×10⁻⁶ cm/s
- inhibition (INH) (Staphylococcus aureus [14]): 99.9%
- half-life at 0.5 h, 1 µM (in vitro [15]): 1.3 min
- inhibition at 8 min, 60 µM (hERG (KCNH2)): 27.4%
- efflux ratio at 2 h, 100 µM [16]: 48
- CLint scaled at 0.5 h, 1 µM (in vitro [17]): 929 mL/min/kg
- CLint scaled at 0.5 h, 1 µM (in vitro [18]): 1710 mL/min/kg
- solubility at 24 h [19]: 114 µM (≈ 82.4 µg/mL)
- fraction unbound at 5 h, up to 15 µM [22]: 0.27
- Tmax [33]: 15 min
- pIC50 [23]: < 3.70
- Activity (Staphylococcus aureus [26]): 2 log10CFU/ml
- Activity (Staphylococcus aureus [28]): ~3 log10CFU/ml
- Papp B→A at 2 h, 100 µM [29]: 23 ×10⁻⁶ cm/s
